One experiment relates to human washed platelets. Briefly: human platelet aggregation assay (submaximal U46619 induced aggregation). In kind it is cell-based. From the text: As indicated above, compounds of the formula (I) have biological activity that is indicative of an ability to antagonise TXA2 receptors.
(b) human platelet aggregation assay.
HUMAN PLATELET AGGREGATION ASSAY
The aggregation assay used human washed platelets and was based on that described by Born (Nature, 1962, vol. 194, 927-929). The assay determines a concentration of test compound which inhibits a submaximal U46619 induced aggregation by 50% (IC50). U46619 is the thromboxane A2 -agonist (9,11-dideoxy-11α,9α-epoxymethanoprostaglandin F2α).

Another experiment has as its target T1, TXA2 receptors (Homo sapiens, UniProt P21731).
T1 construct: endogenous in cells; host or cells: human platelets
T1 sequence (P21731 1-343): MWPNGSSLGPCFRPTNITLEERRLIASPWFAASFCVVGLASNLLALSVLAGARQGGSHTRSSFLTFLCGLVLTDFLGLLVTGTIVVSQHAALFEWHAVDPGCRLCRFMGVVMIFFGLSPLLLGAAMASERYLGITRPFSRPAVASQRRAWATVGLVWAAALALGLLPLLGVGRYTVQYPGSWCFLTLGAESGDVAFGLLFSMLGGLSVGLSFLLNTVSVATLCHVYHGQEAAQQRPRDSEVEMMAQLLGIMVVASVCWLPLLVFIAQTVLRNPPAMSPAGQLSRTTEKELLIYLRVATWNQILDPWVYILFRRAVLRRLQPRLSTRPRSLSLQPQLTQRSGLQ
The experiment in a line: human platelet binding assay ([^125 I]PTA-OH receptor ligand). As to conditions: 50% inhibition of specific [^125 I]PTA-OH binding. The source says: As indicated above, compounds of the formula (I) have biological activity that is indicative of an ability to antagonise TXA2 receptors. […] Exp. Ther., 1985, 235(3), 729-734 where [^125 I]PTA-OH was used as the receptor ligand. The IC50 values represent the concentration which produces a 50% inhibition of specific [^125 I]PTA-OH binding.

Each structure is given as a SMILES string. Counter-ions that a name gives are not always drawn.

The IC50 is the concentration that inhibits the measured activity by half. A high value points to weaker potency.

For `O=C(O)CCN1CCc2ccc(S(=O)(=O)Nc3cccc(Cl)c3)cc2C1` [Example 1, 3-[7-(3-Chlorophenylsulphamoyl)-1,2,3,4-tetrahydroisoquinolin-2-yl]propionic acid], the IC50 amounted to 103 µM in the experiment with human washed platelets and 49.3 µM at TXA2 receptors.

Consider `O=C(O)CCCN1CCc2ccc(S(=O)(=O)Nc3cccc(Cl)c3)cc2C1` [Example 2, 4-[7-(3-Chlorophenylsulphamoyl)-1,2,3,4-tetrahydroisoquinolin-2-yl]butyric acid], for which the IC50 in the experiment on human washed platelets stood at 9.3 µM; at TXA2 receptors, 1.02 µM.

On to `CCOC(=O)CCCCN1CCc2ccc(S(=O)(=O)Nc3cccc(Cl)c3)cc2C1` [Example 3a, ethyl-5-[7-(3-chlorophenylsulphamoyl)-1,2,3,4-tetrahydroisoquinolin-2-yl]valerate hydrochloride], for which the concentration for half-maximal inhibition (IC50) on TXA2 receptors is 3.1 µM.

As for `O=C(O)CCCCN1CCc2ccc(S(=O)(=O)Nc3cccc(Cl)c3)cc2C1` [Example 3b, 5-[7-(3-Chlorophenylsulphamoyl)-1,2,3,4-tetrahydroisoquinolin-2-yl]valeric acid], the half-inhibitory concentration (IC50) in the experiment with human washed platelets worked out at 3.9 µM; on TXA2 receptors, 1.06 µM.

Turning to `O=C(O)CCCCCN1CCc2ccc(S(=O)(=O)Nc3cccc(Cl)c3)cc2C1` [Example 4, 6-[7-(3-Chlorophenylsulphamoyl)-1,2,3,4-tetrahydroisoquinolin-2-yl]hexanoicacid], the IC50 in the experiment on human washed platelets was determined as 34 µM; on TXA2 receptors, 3.8 µM.

At TXA2 receptors, `O=C(O)CCCN1CCc2ccc(S(=O)(=O)Nc3ccccc3)cc2C1` [Example 5, 4-(7-Phenylsulphamoyl-1,2,3,4-tetrahydroisoquinolin-2-yl)butyric acid] had an IC50 of 3.75 µM.

The compound `O=C(O)CCCCN1CCc2ccc(S(=O)(=O)Nc3ccccc3)cc2C1` [Example 6, 5-(7-Phenylsulphamoyl-1,2,3,4-tetrahydroisoquinolin-2-yl)valeric acid] gave an IC50 on TXA2 receptors of 9.2 µM.

As for `O=C(O)CCCN1CCc2ccc(S(=O)(=O)Nc3cccc(C(F)(F)F)c3)cc2C1` [Example 7, 4-[7-(3-Trifluoromethylphenylsulphamoyl)-1,2,3,4-tetrahydroisoquinolin-2-yl]butyric acid], at TXA2 receptors, the IC50 came to 2.8 µM.

`O=C(O)C#CCN1CCc2ccc(S(=O)(=O)Nc3cccc(Cl)c3)cc2C1` [Example 8, Sodium 4-[7-(3-chlorophenylsulphamoyl)-1,2,3,4-tetrahydroisoquinolin-2-yl]but-2-ynoate] displayed an IC50 at TXA2 receptors of 0.7 µM.

For `O=C(O)CCCN1CCc2c(cccc2NS(=O)(=O)c2ccccc2)C1` [Example 9, 4-[5-(Phenylsulphonamido)-1,2,3,4-tetrahydroisoquinolin-2-yl]butyric acid hydrochloride], the IC50 on TXA2 receptors was 79 µM.

Turning to `O=C(O)CCCCN1CCc2c(cccc2NS(=O)(=O)c2ccccc2)C1` [Example 10, 5-[(5-Phenylsulphonamido)-1,2,3,4-tetrahydroisoquinolin-2-yl]valeric acid hydrochloride], the IC50 at TXA2 receptors came out at 134 µM.

In the case of `O=C(O)CCCN1CCc2cc(NS(=O)(=O)c3ccccc3)ccc2C1` [Example 11, 4-[6-Phenylsulphonamido-1,2,3,4-tetrahydroisoquinolin-2-yl]butyric acid], the IC50 on TXA2 receptors worked out at 232 µM.

The compound `O=C(O)CCCCN1CCc2ccc(NS(=O)(=O)c3ccccc3)cc2C1` [Example 12, 5-[7-Phenylsulphonamido-1,2,3,4-tetrahydroisoquiolin-2-yl]valeric acid] registered an IC50 at TXA2 receptors of 40.7 µM.

On TXA2 receptors, `O=C(O)CN1CCc2ccc(NS(=O)(=O)c3ccccc3)cc2C1` [Example 13, 2-[(7-Phenylsulphonamido)-1,2,3,4-tetrahydroisiquinolin-2-yl]-acetic acid hydrochloride] yielded an IC50 of 84 µM.

For the compound `CCCCC(C(=O)O)N1CCc2ccc(NS(=O)(=O)c3ccccc3)cc2C1` (centres unmarked) [Example 14, 2-[(7-Phenylsulphonamido)-1,2,3,4-tetrahydroisoquinolin-2-yl]-caproic acid hydrochloride], the half-inhibitory concentration (IC50) at TXA2 receptors worked out at 98 µM.

For `O=C(O)CCCN1CCc2ccc(S(=O)(=O)Nc3ccc(Cl)cc3)cc2C1` [Example 15, 4-[7-(4-Chlorophenylsulphamoyl)-1,2,3,4-tetrahydroisoquinolin-2-yl]butyric acid], the half-inhibitory concentration (IC50) on TXA2 receptors turned out to be 7.8 µM.

The values are drawn from patent US4812573A, “Pharmaceutically active compounds” (SmithKline & French Laboratories, Ltd., priority 1986, dated 1989).
